Assay results: patent publication US10894786B2, “Substituted pyrazole derivatives as selective CDK12/13 inhibitors” (Aurigene Discovery Technologies Limited, priority 2018, dated 2021)
pIC50, pKd: −log10 of the molar value. Where two headings read alike, the source gives them in different places.

Key:
CDK12 [1] = target: T1, CDK12 (Homo sapiens (Human), UniProt Q9NYV4); experiment: Biochemical assay for CDK12 (IC50 determination), LANCE TR-FRET; conditions: for pIC50: ATP 100 μM, 60 min pre-incubation
Procedure: The inhibitory activity of the test compounds was assessed by the LANCE TR-FRET assay, which detects the ATP-dependent phosphorylation of an ULight-4E-BP1 (Thr37/Thr46) substrate peptide (100 nM) by CDK12 (30 nM). Briefly, the enzyme reaction was run in reaction buffer (25 mM HEPES (pH 7.5), 10 mM MgCl2, 0.01% BSA, 0.01% Triton x, 1 mM DTT). The assay was performed in 384-well plate format. The end concentration of the ATP substrate was 100 μM, and that of the ULight-4E-BP1 (Thr37/Thr46) substrate peptide was 100 nM, and of CDK12 was 30 nM. Pre-incubation of the compound and enzyme was performed for 60 min at room temperature. After 60 min incubation at room temperature, the reaction was terminated by the addition of 40 mM EDTA and 0.5 nM Eu-labeled anti-phospho-eIF4E-binding protein (Thr37/46) antibody in LANCE detection buffer. […] The readout was calculated as (acceptor counts/donor counts)×1000. The IC50 values were derived by fitting a sigmoidal dose-response curve to a plot of assay readout over inhibitor concentration.
Target sequence in this assay (Q9NYV4 whole entry, looked up, species assumed): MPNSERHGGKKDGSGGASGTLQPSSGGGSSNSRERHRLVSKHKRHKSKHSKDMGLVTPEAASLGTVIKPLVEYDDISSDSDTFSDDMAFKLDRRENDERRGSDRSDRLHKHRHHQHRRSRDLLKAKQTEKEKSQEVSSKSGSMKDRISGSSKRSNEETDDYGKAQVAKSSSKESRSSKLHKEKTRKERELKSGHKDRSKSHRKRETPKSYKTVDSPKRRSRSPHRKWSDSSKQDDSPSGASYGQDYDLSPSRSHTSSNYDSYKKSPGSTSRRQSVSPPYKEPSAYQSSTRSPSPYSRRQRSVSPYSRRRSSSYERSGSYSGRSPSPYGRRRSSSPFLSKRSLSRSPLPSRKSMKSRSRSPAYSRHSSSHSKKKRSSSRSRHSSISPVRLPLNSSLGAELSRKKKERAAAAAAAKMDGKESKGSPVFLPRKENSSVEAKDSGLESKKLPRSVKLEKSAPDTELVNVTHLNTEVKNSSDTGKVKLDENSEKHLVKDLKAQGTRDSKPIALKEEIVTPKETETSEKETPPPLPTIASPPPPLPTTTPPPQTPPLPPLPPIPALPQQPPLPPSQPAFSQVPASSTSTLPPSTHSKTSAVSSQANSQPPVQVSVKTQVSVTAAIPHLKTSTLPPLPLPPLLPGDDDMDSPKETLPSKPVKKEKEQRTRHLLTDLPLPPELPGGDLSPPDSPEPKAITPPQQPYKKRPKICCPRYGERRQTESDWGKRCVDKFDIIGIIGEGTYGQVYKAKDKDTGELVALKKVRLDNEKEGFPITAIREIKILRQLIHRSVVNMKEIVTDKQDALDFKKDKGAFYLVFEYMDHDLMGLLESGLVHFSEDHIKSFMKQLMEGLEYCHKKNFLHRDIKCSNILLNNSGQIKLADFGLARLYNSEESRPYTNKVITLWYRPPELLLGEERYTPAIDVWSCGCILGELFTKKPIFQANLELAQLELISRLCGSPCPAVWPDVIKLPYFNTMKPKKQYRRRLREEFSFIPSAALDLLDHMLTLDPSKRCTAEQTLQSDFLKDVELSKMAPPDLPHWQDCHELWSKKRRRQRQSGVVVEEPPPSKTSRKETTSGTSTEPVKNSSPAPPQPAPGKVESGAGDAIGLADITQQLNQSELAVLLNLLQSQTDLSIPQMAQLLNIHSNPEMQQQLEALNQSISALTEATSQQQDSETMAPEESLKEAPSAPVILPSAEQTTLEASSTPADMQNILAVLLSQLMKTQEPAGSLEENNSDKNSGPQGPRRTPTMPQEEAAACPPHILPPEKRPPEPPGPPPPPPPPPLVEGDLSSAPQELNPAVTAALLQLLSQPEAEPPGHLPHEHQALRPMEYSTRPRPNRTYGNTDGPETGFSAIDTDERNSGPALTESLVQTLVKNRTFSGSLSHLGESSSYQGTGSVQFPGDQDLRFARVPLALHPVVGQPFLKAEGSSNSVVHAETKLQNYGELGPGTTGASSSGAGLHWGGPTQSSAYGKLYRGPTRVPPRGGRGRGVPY
Target sequence in this assay (O75909 whole entry partner, looked up, species assumed): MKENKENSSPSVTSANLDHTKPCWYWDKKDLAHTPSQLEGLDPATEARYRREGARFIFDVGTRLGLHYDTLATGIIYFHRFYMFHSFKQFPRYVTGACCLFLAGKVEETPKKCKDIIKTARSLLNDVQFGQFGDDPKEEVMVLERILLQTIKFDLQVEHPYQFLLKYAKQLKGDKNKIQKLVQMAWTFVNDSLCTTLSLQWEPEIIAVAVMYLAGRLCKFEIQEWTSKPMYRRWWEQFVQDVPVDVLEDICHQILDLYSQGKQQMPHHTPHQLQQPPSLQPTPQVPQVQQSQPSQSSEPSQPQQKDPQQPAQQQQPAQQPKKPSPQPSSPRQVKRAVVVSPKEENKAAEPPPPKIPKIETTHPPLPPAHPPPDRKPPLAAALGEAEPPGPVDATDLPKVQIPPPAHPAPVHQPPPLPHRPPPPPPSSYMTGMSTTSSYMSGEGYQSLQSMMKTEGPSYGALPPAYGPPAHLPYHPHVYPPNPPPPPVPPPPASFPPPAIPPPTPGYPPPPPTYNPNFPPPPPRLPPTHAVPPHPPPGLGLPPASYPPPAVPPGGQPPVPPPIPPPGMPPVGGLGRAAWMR

CDK13 = CDK13 (Homo sapiens (Human), UniProt Q14004); experiment: Biochemical assay for CDK13, LanthaScreen Eu Kinase Binding Assay; conditions: for Ratio CDK7/CDK13: ratio of IC50; for pIC50: kinase tracer 236 100 nM
From the text: Binding of an inhibitor to the kinase competes for binding with the tracer, resulting in a loss of FRET signal.

CDK12 [2] = target: T1, CDK12; experiment: Biochemical assay for CDK12 (Kd determination), kinase-tagged phage/qPCR competition binding
Procedure: Kinase-tagged T7 phage strains were grown in parallel in 24-well blocks in an E. coli host derived from the BL21 strain. E. coli were grown to log-phase and infected with T7 phage from a frozen stock (multiplicity of infection=0.4) and incubated with shaking at 32° C. until lysis (90-150 minutes). The lysates were centrifuged (6,000×g) and filtered (0.2 μm) to remove cell debris. The remaining kinases were produced in HEK-293 cells and subsequently tagged with DNA for qPCR detection. […] The liganded beads were blocked with excess biotin and washed with blocking buffer (SeaBlock (Pierce), 1% BSA, 0.05% Tween 20, 1 mM DTT) to remove unbound ligand and to reduce non-specific phage binding. […] Test compounds were prepared as 40× stocks in 100% DMSO and directly diluted into the assay. All reactions were performed in polypropylene 384-well plates in a final volume of 0.02 ml. […] The kinase concentration in the eluates was measured by qPCR.
Target sequence in this assay (Q9NYV4 whole entry, species assumed): as the sequence (Q9NYV4 whole entry, looked up, species assumed) above

CDK7 = CDK7 (Homo sapiens (Human), UniProt P50613); experiment: Biochemical assay for CDK7, LANCE TR-FRET; conditions: ATP 1 mM/100 μM, 60 min pre-incubation; read-out: CDK 7 IC50
Procedure: The inhibitory activity of the test compounds was assessed by the LANCE TR-FRET assay, which detects the ATP-dependent phosphorylation of an ULight-myelin basic protein (MBP) substrate peptide (100 nM) by CDK7 (10 nM). Briefly, the enzyme reaction was run in reaction buffer (20 mM HEPES (pH 7.5), 10 mM MgCl2, 0.01% Triton x, 100 μM Sodium Orthovanadate, 1 mM DTT). The assay was performed in 384-well plate. The end concentration of the ATP substrate was 1 mM/100 μM, and that of the ULight-MBP substrate peptide was 100 nM, and of CDK7 was 10 nM. Pre-incubation of the compound and enzyme was performed for 60 min at room temperature. After 60 min incubation at room temperature, the reaction was terminated by the addition of 40 mM EDTA and 1 nM Eu-labeled anti-phospho-MBP-binding protein antibody in the buffer. […] The readout was calculated as (acceptor counts/donor counts)×1000. The IC50 values were derived by fitting a sigmoidal dose-response curve to a plot of assay readout over inhibitor concentration.

Sequence of CDK13 (Q14004 whole entry, looked up, species assumed): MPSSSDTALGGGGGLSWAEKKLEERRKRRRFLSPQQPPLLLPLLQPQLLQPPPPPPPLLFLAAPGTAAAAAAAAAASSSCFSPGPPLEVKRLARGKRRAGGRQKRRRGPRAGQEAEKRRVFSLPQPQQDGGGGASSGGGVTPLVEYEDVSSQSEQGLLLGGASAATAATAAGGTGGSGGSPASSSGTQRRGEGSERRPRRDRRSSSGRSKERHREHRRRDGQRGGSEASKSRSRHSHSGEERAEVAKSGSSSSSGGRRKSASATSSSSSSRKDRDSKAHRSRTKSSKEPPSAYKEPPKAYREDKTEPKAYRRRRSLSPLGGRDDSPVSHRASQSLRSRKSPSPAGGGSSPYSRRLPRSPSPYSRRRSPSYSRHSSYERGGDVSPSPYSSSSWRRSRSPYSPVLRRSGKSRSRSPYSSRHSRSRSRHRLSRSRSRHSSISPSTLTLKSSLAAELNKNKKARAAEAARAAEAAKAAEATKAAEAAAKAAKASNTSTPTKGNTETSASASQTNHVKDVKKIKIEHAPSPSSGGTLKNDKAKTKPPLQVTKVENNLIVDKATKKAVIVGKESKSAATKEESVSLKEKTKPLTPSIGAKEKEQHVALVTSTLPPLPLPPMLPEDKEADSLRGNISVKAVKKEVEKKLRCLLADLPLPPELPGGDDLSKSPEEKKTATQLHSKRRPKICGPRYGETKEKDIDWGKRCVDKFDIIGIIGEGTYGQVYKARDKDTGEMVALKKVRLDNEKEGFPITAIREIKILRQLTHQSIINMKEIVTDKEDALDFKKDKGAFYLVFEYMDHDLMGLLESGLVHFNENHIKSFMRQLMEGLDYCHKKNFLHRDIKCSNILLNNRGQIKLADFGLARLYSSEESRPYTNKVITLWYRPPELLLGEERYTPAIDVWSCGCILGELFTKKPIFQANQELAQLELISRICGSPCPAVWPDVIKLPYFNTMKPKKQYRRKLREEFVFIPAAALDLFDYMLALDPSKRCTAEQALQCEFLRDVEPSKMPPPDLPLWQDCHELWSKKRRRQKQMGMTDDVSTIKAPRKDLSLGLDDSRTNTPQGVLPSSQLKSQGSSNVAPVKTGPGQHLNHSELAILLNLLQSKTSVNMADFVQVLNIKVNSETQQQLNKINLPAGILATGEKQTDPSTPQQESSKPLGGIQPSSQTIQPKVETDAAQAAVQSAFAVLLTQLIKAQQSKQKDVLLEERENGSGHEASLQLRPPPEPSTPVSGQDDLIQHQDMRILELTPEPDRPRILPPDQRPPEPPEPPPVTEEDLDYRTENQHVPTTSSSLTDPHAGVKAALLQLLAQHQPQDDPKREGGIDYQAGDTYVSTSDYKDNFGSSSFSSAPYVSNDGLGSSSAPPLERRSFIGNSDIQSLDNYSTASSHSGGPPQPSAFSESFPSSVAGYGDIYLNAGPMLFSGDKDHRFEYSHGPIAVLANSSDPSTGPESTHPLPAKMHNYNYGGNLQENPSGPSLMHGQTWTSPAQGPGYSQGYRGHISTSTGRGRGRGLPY
Sequence of CDK13 (O75909 whole entry partner, looked up, species assumed): as the sequence (O75909 whole entry partner, looked up, species assumed) above
Sequence of CDK7 (P50613 whole entry, looked up, species assumed): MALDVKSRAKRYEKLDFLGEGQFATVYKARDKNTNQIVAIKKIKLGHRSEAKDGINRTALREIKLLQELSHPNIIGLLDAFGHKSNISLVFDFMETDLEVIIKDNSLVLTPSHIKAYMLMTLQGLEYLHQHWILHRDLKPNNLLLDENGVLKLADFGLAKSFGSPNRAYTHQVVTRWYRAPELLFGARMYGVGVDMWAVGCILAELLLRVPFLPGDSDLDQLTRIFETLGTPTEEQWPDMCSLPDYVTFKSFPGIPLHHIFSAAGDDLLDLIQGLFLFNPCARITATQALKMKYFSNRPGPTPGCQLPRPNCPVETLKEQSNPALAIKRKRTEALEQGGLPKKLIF
Sequence of CDK7 (P51946 whole entry partner, looked up, species assumed): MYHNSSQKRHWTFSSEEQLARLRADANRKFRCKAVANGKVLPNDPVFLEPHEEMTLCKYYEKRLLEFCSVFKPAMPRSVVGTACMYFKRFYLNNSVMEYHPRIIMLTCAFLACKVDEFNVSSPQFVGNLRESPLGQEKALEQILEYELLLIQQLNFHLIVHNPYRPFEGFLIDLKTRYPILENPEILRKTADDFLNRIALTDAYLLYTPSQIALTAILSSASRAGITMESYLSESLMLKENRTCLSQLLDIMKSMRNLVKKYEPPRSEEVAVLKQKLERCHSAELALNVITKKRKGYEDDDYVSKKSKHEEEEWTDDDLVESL
Sequence of CDK7 (P51948 whole entry partner, looked up, species assumed): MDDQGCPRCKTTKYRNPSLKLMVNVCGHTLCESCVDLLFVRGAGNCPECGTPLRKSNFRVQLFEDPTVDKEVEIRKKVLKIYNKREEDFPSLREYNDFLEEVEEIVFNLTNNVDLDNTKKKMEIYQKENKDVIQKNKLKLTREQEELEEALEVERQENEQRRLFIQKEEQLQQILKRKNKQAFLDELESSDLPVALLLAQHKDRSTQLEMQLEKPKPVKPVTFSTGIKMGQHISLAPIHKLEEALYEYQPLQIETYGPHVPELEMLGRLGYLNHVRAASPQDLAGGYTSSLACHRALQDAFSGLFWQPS

Ratio CDK7/CDK12 (CDK12 [1]; ratio of IC50) | pKd (CDK12 [2]) | pIC50 (CDK12 [1]) | Compound | Ratio CDK7/CDK13 (CDK13) | pIC50 (CDK13) | pIC50 (CDK7) | Ratio CDK7/CDK12 (CDK12 [1])
 | > 7.60 | 6.63 | C=CC(=O)NC1CCN(c2ccc(C(C)C(=O)Nc3cc(C4CC4)[nH]n3)cc2)CC1 (centres unmarked) [Compound 21, N-(1-(4-(1-((5-cyclopropyl-1H-pyrazol-3-yl)amino)-1-oxopropan-2-yl)phenyl)piperidin-4-yl)acrylamide] |  | 7.14 |  | 
 |  | 7.39 | C=CC(=O)N1CCC=C(c2ccc(C(CC)C(=O)Nc3cc(C4CC4)[nH]n3)cn2)C1 (centres unmarked) [Compound 39, 2-(1′-acryloyl-1′,2′,5′,6′-tetrahydro-[2,3′-bipyridin]-5-yl)-N-(5-cyclopropyl-1H-pyrazol-3-yl)butanamide] |  | 7.03 |  | 
7.42 |  |  | C=CC(=O)NC1CCC(c2ccc(C(C)C(=O)Nc3cc(C4CC4)n[nH]3)cc2)CC1 (centres unmarked) [Compound 10, N-(4-(4-(1-((5-cyclopropyl-1H-pyrazol-3-yl)amino)-1-oxopropan-2-yl)phenyl)cyclohexyl)acrylamide] | 305.11 |  |  | 
 |  | 6.75 | C=CC(=O)N1CCC=C(c2ccc(C(C(=O)Nc3cc(C4CC4)[nH]n3)C(C)C)cn2)C1 (centres unmarked) [Compound 43, 2-(1′-acryloyl-1′,2′,5′,6′-tetrahydro-[2,3′-bipyridin]-5-yl)-N-(5-cyclopropyl-1H-pyrazol-3-yl)-3-methylbutanamide] |  | 7.27 |  | 
3.57 |  |  | C=CC(=O)NC1CCC(c2ccc(C(C)C(=O)Nc3cc(C4CC4)n[nH]3)cc2)CC1 (centres unmarked) [Compound 11, N-(4-(4-(1-((5-cyclopropyl-1H-pyrazol-3-yl)amino)-1-oxopropan-2-yl)phenyl)cyclohexyl)acrylamide] | 81.02 |  |  | 
 | 7.00 to 7.60 | 6.42 | C=CC(=O)NC1CC=C(c2ccc(C(C)C(=O)Nc3cc(C4CC4)[nH]n3)cc2)CC1 (centres unmarked) [Compound 8, N-(4′-(1 ((5-cyclopropyl-1H-pyrazol-3-yl)amino)-1-oxopropan-2-yl)-2,3,4,5-tetrahydro-[1,1′-biphenyl]-4-yl)acrylamide] |  | 7.72 |  | 
 |  | 7.03 | C/C=C/C(=O)N1CCC=C(c2ccc(CC(=O)Nc3cc(C4CC4)[nH]n3)cn2)C1 [Compound 54, (E)-2-(1′-(but-2-enoyl)-1′,2′,5′,6′-tetrahydro-[2,3′-bipyridin]-5-yl)-N-(5-cyclopropyl-1H-pyrazol-3-yl)acetamide] |  | 8.52 |  | 
 |  | 6.19 | C[C@H](C(=O)Nc1cc(C2CC2)[nH]n1)c1ccc(C2=CCN(C(=O)/C=C/CN3CCOCC3)CC2)cc1 [Compound 16, (S,E)-N-(5-cyclopropyl-1H-pyrazol-3-yl)-2-(4-(1-(4-morpholinobut-2-enoyl)-1,2,3,6-tetrahydropyridin-4-yl)phenyl)propanamide] |  | 7.46 |  | 
 | < 7.00 |  | C=CC(=O)N1CC=C(c2ccc(C(C(=O)Nc3cc(C4CC4)[nH]n3)C(C)C)cc2)CC1 (centres unmarked) [Compound 3, 2-(4-(1-acryloyl-1,2,3,6-tetrahydropyridin-4-yl)phenyl)-N-(5-cyclopropyl-1H-pyrazol-3-yl)-3-methylbutanamide] | 5.0 | 7.00 | 6.30 | 
 |  | 6.75 | CC(C)=CC(=O)N1CCC=C(c2ccc(CC(=O)Nc3cc(C4CC4)[nH]n3)cn2)C1 [Compound 55, N-(5-cyclopropyl-1H-pyrazol-3-yl)-2-(1′-(3-methylbut-2-enoyl)-1′,2′,5′,6′-tetrahydro-[2,3′-bipyridin]-5-yl)acetamide] |  |  |  | 
 |  | 6.85 | C=C(C)C(=O)N1CCC=C(c2ccc(CC(=O)Nc3cc(C4CC4)[nH]n3)cn2)C1 [Compound 57, N-(5-cyclopropy1-1H-pyrazol-3-yl)-2-(1′-methacryloyl-1′,2′,5′,6′-tetrahydro-[2,3′-bipyridin]-5-yl)acetamide] |  | 8.00 |  | 
 |  | 8.40 | N#CN1CC=C(c2ccc(CC(=O)Nc3cc(C4CC4)[nH]n3)cn2)CC1 [Compound 62, 2-(1′-cyano-1′,2′,3′,6′-tetrahydro-[2,4′-bipyridin]-5-yl)-N-(5-cyclopropyl-1H-pyrazol-3-yl)acetamide] |  |  |  | 

Compound | Ratio CDK7/CDK12 (CDK12 [1]; ratio of IC50) | pKd (CDK12 [2]) | pIC50 (CDK12 [1]) | Ratio CDK7/CDK13 (CDK13) | pIC50 (CDK13) | pIC50 (CDK7) | Ratio CDK7/CDK12 (CDK12 [1])
C=CC(=O)N1CCN(c2ccc(C(C)C(=O)Nc3cc(C4CC4)[nH]n3)cc2)CC1 (centres unmarked) [Compound 18, 2-(4-(4-acryloylpiperazin-1-yl)phenyl)-N-(5-cyclopropyl-1H-pyrazol-3-yl)propanamide] | 9.75 |  |  | 198.46 |  |  | 
C=CC(=O)N1CC=C(c2ccc(C(C)C(=O)Nc3cc(C4CC4)[nH]n3)cn2)C1 (centres unmarked) [Compound 47, 2-(6-(1-acryloyl-2,5-dihydro-1H-pyrrol-3-yl)pyridin-3-yl)-N-(5-cyclopropyl-1H-pyrazol-3-yl)propanamide] |  |  | 6.17 |  | 8.22 |  | 
C=CC(=O)N1CCC=C(c2ccc(C(C)C(=O)Nc3cc(C4CC4)[nH]n3)cn2)C1 (single isomer, unassigned) [Compound 36, 2-(1′-acryloyl-1′,2′,5′,6′-tetrahydro-[2,3′-bipyridin]-5-yl)-N-(5-cyclopropyl-1H-pyrazol-3-yl)propanamide] |  | 7.00 to 7.60 | 6.16 |  | 6.82 |  | 
C=CC(=O)N1CC=C(c2ccc(C(C)C(=O)Nc3cc(C4CC4)[nH]n3)cn2)C1 (centres unmarked) [Compound 38, 2-(6-(1-acryloyl-2,5-dihydro-1H-pyrrol-3-yl)pyridin-3-yl)-N-(5-cyclopropyl-1H-pyrazol-3-yl)propanamide] |  |  | 7.47 | 10.1 | 7.00 | 6.00 | 29.7
CC#CC(=O)N1CC=C(c2ccc(C(C)C(=O)Nc3cc(C4CC4)[nH]n3)cn2)CC1 (centres unmarked) [Compound 51, 2-(1′-(but-2-ynoyl)-1′,2′,3′,6′-tetrahydro-[2,4′-bipyridin]-5-yl)-N-(5-cyclopropyl-1H-pyrazol-3-yl)propanamide] |  |  | 6.69 | 67.68 | 7.60 | 5.77 | 8.33
C=CC(=O)N1CCN(c2ccc(C(C)C(=O)Nc3cc(C4CC4)[nH]n3)cc2)CC1 (single isomer, unassigned) [Compound 19, 2-(4-(4-acryloylpiperazin-1-yl)phenyl)-N-(5-cyclopropyl-1H-pyrazol-3-yl)propanamide] |  | < 7.00 |  |  | 5.24 |  | 
C=CC(=O)N1CCCC(c2ccc(C(C)C(=O)Nc3cc(C4CC4)[nH]n3)cn2)C1 (centres unmarked) [Compound 41, 2-(6-(1-acryloylpiperidin-3-yl)pyridin-3-yl)-N-(5-cyclopropyl-1H-pyrazol-3-yl)propanamide] |  |  | 6.45 | 121.03 | 7.54 | 5.45 | 9.91
C=CC(=O)N1CCC(c2ccc(C(C)C(=O)Nc3cc(C4CC4)[nH]n3)cn2)CC1 (centres unmarked) [Compound 13, 2-(6-(1-acryloylpiperidin-4-yl)pyridin-3-yl)-N-(5-cyclopropyl-1H-pyrazol-3-yl)propanamide] |  |  | 7.24 | 357.14 | 7.55 | < 5.00 | 172.41
C=CC(=O)N1CCC=C(c2ccc(C(C)C(=O)Nc3cc(C4CC4)[nH]n3)cc2F)C1 (centres unmarked) [Compound 42, 2-(4-(1-acryloyl-1,2,5,6-tetrahydropyridin-3-yl)-3-fluorophenyl)-N-(5-cyclopropyl-1H-pyrazol-3-yl)propanamide] |  |  | 7.85 | 5.05 | 7.06 | 6.36 | 31.42
C=CC(=O)N1CC=C(c2ccc(C(C)C(=O)Nc3cc(C4CC4)[nH]n3)cc2F)CC1 (centres unmarked) [Compound 45, 2-(4-(1-acryloyl-1,2,3,6-tetrahydropyridin-4-yl)-3-fluorophenyl)-N-(5-cyclopropyl-1H-pyrazol-3-yl)propanamide] |  |  | 6.35 | 22.15 | 6.59 | 5.24 | 12.94
